The values that follow come from ChEMBL document CHEMBL1201862, “PubChem BioAssay data set” (2004).

Molecules are shown by their SMILES.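 1) Cells in 96-well plates. 2) Compound, 48 h, 5 concentrations. 3) Linear interpolation between surrounding doses. 4) Unreached endpoint = highest concentration. The concentration for 50% growth inhibition is given as GI50.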 Calls of active or inactive are those of the source. Cut-off read from the data, not from the text of the source: active = GI50 up to about 1.1 µM and inactive = higher. Bounds are passed on as bounds.

Test in all cases: DTP human tumour cell line panel, 48 h
For test [1], the system named is MOLT-4.
Test [2] concerns Hs-578T.
The test system of test [3] is HOP-62.
For test [4], the system named is K562.
The subject of test [5] is MCF7.
For test [6], the system named is IGROV-1.
The test system of test [7] is SK-OV-3.
The subject of test [8] is OVCAR-3.
The subject of test [9] is SK-MEL-28.
The subject of test [10] is SF-268.
The test system of test [11] is MDA-MB-435.
Test [12] concerns SN12C.
Test [13] deals with NCI/ADR-RES.
The test system of test [14] is SNB-75.
The subject of test [15] is UACC-62.
In test [16] the test system is NCI-H522.
Test [17] has as its system RXF 393.
The subject of test [18] is DU-145.
Test [19] relates to COLO 205.
For test [20], the system named is PC-3.

On to `Nc1nc(I)nc2c1ncn2C1OC(COS(N)(=O)=O)C(O)C1O` (configuration not stated), for which the GI50 in test [1] was < 0.01 µM (active); in test [2] it was < 0.01 µM (active); in test [3], 0.0218 µM (active); in test [4] it was < 0.01 µM (active); in test [5], < 0.01 µM (active); in [6] it was 0.0128 µM (active). The 50% growth inhibitory concentration (GI50) in test [7] is < 0.0166 µM (active); in test [8], < 0.01 µM (active); in test [9], < 0.01 µM (active); in [10], < 0.01 µM (active); in test [11], < 0.01 µM (active); in test [12], < 0.01 µM (active). The 50% growth inhibitory concentration (GI50) in test [13] was < 0.01 µM (active); in [14], < 0.01 µM (active); in [15], 0.0226 µM (active); in test [16], < 0.01 µM (active); in [17], 0.0148 µM (active); in test [18] it was < 0.01 µM (active). Further, the concentration for 50% growth inhibition (GI50) in [19] and in test [20] was < 0.01 µM (active) in each case.
As for `O=C(CC(O)(C(F)(F)F)C(F)(F)F)c1cc(CC(=O)C(O)(C(F)(F)F)C(F)(F)F)cc(CC(=O)C(O)(C(F)(F)F)C(F)(F)F)c1`, the GI50 is 4.47 µM (inactive) in test [1]; 2.05 µM (inactive) in test [2]; 1.46 µM (inactive) in test [3]; > 10 µM (inactive) in [4]; 1.86 µM (inactive) in [5]; 1.65 µM (inactive) in test [6]. For the same compound, the GI50 in [7] is 2.14 µM (inactive); in test [8] it was 0.454 µM (active); in [9] it was 1.64 µM (inactive); in test [10], 2.67 µM (inactive); in test [11], 1 µM (active); in [12], 1.41 µM (inactive). Moreover, the GI50 is 1.85 µM (inactive) in [13]; 1.91 µM (inactive) in test [14]; 1.11 µM (active) in [15]; 1.14 µM (inactive) in test [16]; 1.47 µM (inactive) in test [17]; 1.97 µM (inactive) in test [18]. For the same compound, the GI50 was 1.61 µM (inactive) in test [19] and 0.78 µM (active) in test [20].
With `Cc1cc2nnn(C3CCCCO3)c2cc1C` (configuration not stated), the GI50 in test [1], in test [2], in test [3], in test [4], in [5] and in test [6] was > 100 µM (inactive) each time. Moreover, the GI50 was > 100 µM (inactive) in test [7]; > 100 µM (inactive) in test [8]; > 100 µM (inactive) in test [11]; > 100 µM (inactive) in test [12]; > 100 µM (inactive) in test [13]; 88.1 µM (inactive) in [14]. Besides, the GI50 in [15], in [16], in test [17], in [18], in [19] and in test [20] was > 100 µM (inactive) throughout.
On to `COC1=C(Br)C(O)C2(C=C1Br)CC(C(=O)NCCCCNC(=O)C1=NOC3(C=C(Br)C(OC)=C(Br)C3O)C1)=NO2` (configuration not stated), for which the GI50 in test [2] was 12.4 µM (inactive); in test [3], 30.5 µM (inactive); in [4], 16.3 µM (inactive); in test [5], 21.8 µM (inactive); in test [6], 11.7 µM (inactive); in [7], 27.2 µM (inactive). Moreover, the GI50 in test [8] is 15.6 µM (inactive); in test [9], 25.5 µM (inactive); in test [10], 13.5 µM (inactive); in test [11], 19.9 µM (inactive); in test [12], 25.6 µM (inactive); in test [13], 51.2 µM (inactive). In addition, the GI50 in test [14] is 16.9 µM (inactive); in [15], 31.8 µM (inactive); in test [16], 11.3 µM (inactive); in test [17], 24.8 µM (inactive); in [18] it was 31.6 µM (inactive); in test [19] it was 15.8 µM (inactive). For the same compound, the GI50 in [20] is 20.4 µM (inactive).
With `O=c1[nH]c2c(Nc3c4ccccc4nc4ccccc34)c([N+](=O)[O-])c(Nc3c4ccccc4nc4ccccc34)c([N+](=O)[O-])c2[nH]1`, the 50% growth inhibitory concentration (GI50) is 0.38 µM (active) in [1]; 2.27 µM (inactive) in test [2]; 1.69 µM (inactive) in test [3]; 2.59 µM (inactive) in test [4]; 1.53 µM (inactive) in test [5]; 1.69 µM (inactive) in test [6]. In addition, the GI50 in [7] is 3.03 µM (inactive); in test [8], 2.15 µM (inactive); in test [9], 3.13 µM (inactive); in test [10] it was 1.98 µM (inactive); in test [11], 2.15 µM (inactive); in test [12], 1.45 µM (inactive). Further, the GI50 in test [13] was 1.01 µM (active); in test [14], 2.48 µM (inactive); in test [15], 1.39 µM (inactive); in test [16] it was 1.09 µM (active); in test [17], 2.42 µM (inactive); in [18], 2.67 µM (inactive). In addition, the GI50 was 1.37 µM (inactive) in test [19] and 2.05 µM (inactive) in test [20].
With `CN(C)CN1C(=O)S/C(=C2\C(=O)N(CN(C)C)c3ccccc32)C1=O`, the concentration for 50% growth inhibition (GI50) in test [1] is < 0.01 µM (active); in test [2], 34.7 µM (inactive); in test [3], 41.6 µM (inactive); in [5], 38.5 µM (inactive); in test [6] it was 57.5 µM (inactive); in [7] it was > 100 µM (inactive). Also, the GI50 in [8] was 50.2 µM (inactive); in [9] it was 64.7 µM (inactive); in test [10], 32.8 µM (inactive); in test [11], 66.1 µM (inactive); in test [12], 23.7 µM (inactive); in test [13] it was 40.2 µM (inactive). Moreover, the GI50 was 22.2 µM (inactive) in [14]; 65.3 µM (inactive) in test [15]; 36.5 µM (inactive) in [16]; 19.9 µM (inactive) in test [17]; 32.1 µM (inactive) in test [18]; 36.4 µM (inactive) in [19]. Moreover, the GI50 in [20] was 45.6 µM (inactive).
Turning to `O=C1CCC[C@@H]2NC[C@@H](c3ccc4c(c3)OCO4)[C@H]12`, the GI50 in [1], in [2], in test [3], in test [4], in test [5] and in test [6] was > 25 µM (inactive) each time. Besides, the GI50 in [7], in test [9], in test [10], in test [11], in test [12] and in test [13] was > 25 µM (inactive) throughout. Further, the GI50 in test [14], in test [15], in test [16], in test [17], in test [18] and in test [19] was > 25 µM (inactive) each time. Further, the GI50 in test [20] is > 25 µM (inactive).
For `NC(=O)N=C(N(Cc1ccccc1)Cc1ccccc1)N(Cc1ccccc1)Cc1ccccc1`, the GI50 in [1] was > 100 µM (inactive); in test [2], 97.5 µM (inactive); in test [3] it was 15.3 µM (inactive); in test [4], > 100 µM (inactive); in [5], 7.29 µM (inactive); in [6], 8.97 µM (inactive). The GI50 is > 58.7 µM (inactive) in test [7]; 5.08 µM (inactive) in test [8]; > 100 µM (inactive) in test [9]; 37.2 µM (inactive) in test [10]; 3.72 µM (inactive) in test [11]; 6.08 µM (inactive) in [12]. Besides, the GI50 was > 100 µM (inactive) in [13]; 13.3 µM (inactive) in [14]; 8.39 µM (inactive) in [15]; 6.43 µM (inactive) in test [16]; > 100 µM (inactive) in test [17]; > 100 µM (inactive) in [18]. In addition, in test [20], the GI50 was 4.17 µM (inactive).
`O=C1OC(c2ccc(Cl)cc2)=N/C1=C\c1ccccc1`: the GI50 in [2], in test [3], in [4], in [5], in test [6] and in [7] was > 100 µM (inactive) each time. Also, the GI50 was 42.3 µM (inactive) in test [8]; > 100 µM (inactive) in [9]; > 100 µM (inactive) in test [10]; > 100 µM (inactive) in test [11]; > 100 µM (inactive) in test [12]; 78 µM (inactive) in [13]. Also, the GI50 in test [14] is > 100 µM (inactive); in [15] it was > 100 µM (inactive); in test [16] it was 49.2 µM (inactive); in test [17], > 100 µM (inactive); in test [18] it was > 100 µM (inactive); in test [19], > 100 µM (inactive). For the same compound, in [20], the GI50 is > 100 µM (inactive).
Regarding `Cc1cc(N(CCC#N)CCC#N)ccc1C(/N=N/c1ccccc1)=N\NC(=O)c1cc(Cl)ccc1O`, the GI50 in test [1] was 39 µM (inactive); in [2] it was 23.8 µM (inactive); in [3] it was 41.8 µM (inactive); in [4] it was 22.4 µM (inactive); in [5] it was 11.7 µM (inactive); in test [6], 26.2 µM (inactive). Moreover, the GI50 in test [7] was 71.4 µM (inactive); in [8] it was 18 µM (inactive); in test [10], 30.1 µM (inactive); in test [11], 36.4 µM (inactive); in [12], 26.5 µM (inactive); in [13], 20.1 µM (inactive). Moreover, the GI50 in test [14] is 77.6 µM (inactive); in test [15] it was 7.71 µM (inactive); in [16], 13.6 µM (inactive); in test [17], 23.3 µM (inactive); in test [18], 27.5 µM (inactive); in [19] it was 19.7 µM (inactive). Besides, the GI50 in test [20] is 23.5 µM (inactive).
